From patent US12419307B2, “Mixtures comprising indazole pesticides” (FMC Corporation, priority 2019, dated 2025)

Legend:
Assay type in all cases: in vivo
[1] = system: cotton melon aphid (Aphis gossypii Glover); experiment: Test D: cotton melon aphid control on okra plants, insect mortality after 6 days
Description: The analysis of enhanced activity between the mixtures or compositions was determined using Colby's equation. The average % mortality data for the test compounds alone were inserted into the Colby's equation. If the observed (obs) average % mortality was higher than “p”, the expected (exp) % mortality, the mixture or composition had enhanced effects. If the observed average % mortality was equal to or lower than the expected mortality, the mixture or composition either had no enhanced effect. For bioassays where insect feeding damage was evaluated, enhanced activity is identified when the observed plant damage is less than the expected plant damage rating; ratings ranged between 0 (no damage) and 10 (dead plant) and each value was converted to a % plant protection. 100−(Obs Plant Damage*10)
For evaluating control of cotton melon aphid (Aphis gossypii Glover) through contact and/or systemic means, each test unit consisted of a small open container with a 6- to 7-day-old okra plant inside. This was pre-infested by placing on a leaf of the test plant 30 to 40 aphids on a piece of leaf excised from a culture plant (cut-leaf method). The […] moved onto the test plant as the leaf piece desiccated. After pre-infestation, the soil of the test unit was covered with a layer of sand.
Test compounds were formulated and sprayed as described for Test A. The applications were replicated three times. After spraying of the formulated test compounds, each test unit was allowed to dry for 1 hour and then a black, screened cap was placed on top. […]

[2] = system: Western Flower Thrips (Frankliniella occidentalis Pergande); experiment: Test B: Western Flower Thrips control on bean plants, plant damage rating converted to % plant protection after 7 days
Description: (§1) The pest control protection afforded by the mixtures or compositions is not limited, however, to these species. The analysis of enhanced activity between the mixtures or compositions was determined using Colby's equation. The average % mortality data for the test compounds alone were inserted into the Colby's equation. If the observed (obs) average % mortality was higher than “p”, the expected (exp) % mortality, the mixture or composition had enhanced effects. If the observed average % mortality was equal to or lower than the expected mortality, the mixture or composition either had no enhanced effect. For bioassays where insect feeding damage was evaluated, enhanced activity is identified when the observed plant damage is less than the expected plant damage rating; ratings ranged between 0 (no damage) and 10 (dead plant) and each value was converted to a % plant protection. 100−(Obs Plant Damage*10)
Thus, a plant given a plant damage rating of 3 out of 10 is equivalent to 70% plant protection In all of these tests, compounds of Formula I are Compounds 1 (Cpd 1), 2 (Cpd2), and 3 (Cpd3) and compounds of Formula II are compounds 4 (Cpd4) and 5 (Cpd 5).
For evaluating control of the Western Flower Thrips (Frankliniella occidentalis Pergande) through contact and/or systemic means, each test unit consisted of a small open container with a 5- to 7-day-old bean (var. Soleil) plant inside.
Test solutions were formulated and sprayed with 3 replications as described for Test A. After spraying, the test units were allowed to dry for 1 hour, 22 to 27 adult thrips were added to each unit and then a black, screened cap was placed on top. The test units were held for 7 days at 25° C. and 45-55% relative humidity. To evaluate the level of plant protection provided by each treatment, each test unit was then visually assessed for plant damage inflicted by insect feeding and rated 0-10, where 0=undamaged and 10=plant is dead; the results are listed in Tables 3a-g.

[3] = system: silverleaf whitefly (Bemisia argentifolii Bellows and Perring); experiment: Test A: silverleaf whitefly control on cotton or soybean plants, spray, insect mortality after 13 days; details: for % Mortality (obs): applied alone
Description: as §1
For evaluating control of silverleaf whitefly (Bemisia argentifolii Bellows and Perring) through contact and/or systemic means, each test unit consisted of a small open container with a 12- to 14-day-old cotton plant or 5-7 day old soybean plant inside. This was pre-infested by placing test units into cages containing adult whiteflies so that oviposition on the cotton leaves could occur. The adults were removed from the plants with an air-blast nozzle, and the test units were capped. The test units were then stored 2 to 3 days before spraying.
Test compounds were formulated using a solution containing 10% acetone, 90% water and 300 ppm Activator 90@ Spreader Lo-Foam Formula non-ionic surfactant containing alkylarylpolyoxyethylene, free fatty acids, glycols and 2-propanol (Loveland Industries, Inc.) to provide the desired concentration in ppm. Formulated test solutions were then applied in 1 mL volumes through a SUJ2 atomizer nozzle with ⅛ JJ custom body (Spraying Systems Co.) positioned 1.27 cm (0.5 inches) above the top of each test unit.
The results for all experimental compositions in this test were replicated three times. After spraying of the formulated test composition, each test unit was allowed to dry for 1 hour and the cap removed. The test units were held for 13 days in a growth chamber at 28° C. and 50-70% relative humidity.

[4] = system: corn planthopper (Peregrinus maidis (Ashmead)); experiment: Test C: corn planthopper control on corn plants, insect mortality after 6 days; details: for % Mortality (obs): Table 4e
Description: as §1
For evaluating control of corn planthopper (Peregrinus maidis (Ashmead)) through contact and/or systemic means, the test unit consisted of a small open container with a 3-4-day-old corn (maize) plant inside. White sand was added to the top of the soil prior to application of the test compound.
Test compounds were formulated and sprayed at 250 and/or 50 ppm and/or 10 ppm. After spraying of the formulated test compound, the test units were allowed to dry for 1 h before they were post-infested with ˜15-20 nymphs (18-to-21-day-old). […]

[5] = system: fall armyworm (Spodoptera frugiperda (J. E. Smith)); experiment: Test E: fall armyworm control on corn plants, plant damage rating and mortality after 6 days
Description: as §1
For evaluating control of fall armyworm (Spodoptera frugiperda (J. E. Smith)) the test unit consisted of a small open container with a 4-5-day-old corn (maize) plant inside. This was pre-infested with 10-15 1-day-old larvae on a piece of insect diet. Test compounds were formulated and sprayed with 3 replications as described for Test A. After spraying of the formulated test compound, the test units were maintained in a growth chamber for 6 days at 25° C. and 70% relative humidity. Plant feeding damage was then visually assessed based on foliage consumed, and larvae were assessed for mortality. Each test unit was then visually assessed for plant damage and rated 0-10, where 0=undamaged and 10=plant is dead; the results are listed in Tables 6d-i.

[6] = system: Potato Leafhopper (Empoasca fabae Harris); experiment: Test C: Potato Leafhopper control on bean plants, insect mortality after 6 days; details: read-out: % Mortality (obs)
Description: as §1
For evaluating control of Potato Leafhopper (Empoasca fabae Harris) through contact and/or systemic means, each test unit consisted of a small open container with a 5- to 6-day-old Longio bean plant (primary leaves emerged) inside. White sand was added to the top of the soil, and one of the primary leaves was excised prior to application. Test compounds were formulated and sprayed with 3 replications as described for Test A. After spraying, the test units were allowed to dry for 1 hour before they were infested with 5 potato leafhoppers (18- to 21-day-old adults). A black, screened cap was placed on the top of each container. The test units were held for 6 days in a growth chamber at 19-21° C. and 50-70% relative humidity.

[7] = Aphis gossypii, read-out: % Mortality (obs)
[8] = Bemisia argentifolii, read-out: % Mortality (obs)
[9] = Peregrinus maidis, read-out: % Mortality (obs)
[10] = Spodoptera frugiperda, 144 h, read-out: Plant Protection (obs)
[11] = Peregrinus maidis, 96 h, read-out: % Mortality (obs)

Cc1c(COC(=O)[C@@H]2[C@H](/C=C(\Cl)C(F)(F)F)C2(C)C)cccc1-c1ccccc1 (racemic) [Bifenthrin, bifenthrin, reference compound]
mortality at 50 ppm [1, 7]: 28.7% | mortality at 250 ppm [1, 7]: 58.2% | pest or weed control at 50 ppm ([2]; Frankliniella occidentalis, 168 h, Table 3f, 50 ppm, read-out: Plant Protection (obs)): 36.7% | pest or weed control at 250 ppm ([2]; Frankliniella occidentalis, 168 h, Table 3f, 250 ppm, read-out: Plant Protection (obs)): 70% | mortality at 50 ppm [3, 8]: 0% | mortality at 250 ppm [3, 8]: 0%

C/C(=N\C#N)N(C)Cc1ccc(Cl)nc1 [Acetamiprid, acetamiprid, reference compound]
mortality at 0.03 ppm [1, 7]: 21.1% | mortality at 0.06 ppm [1, 7]: 45.1% | Plant Protection (obs) ([2]; Table 3b, applied alone, 5.49 ppm): 30.0% | Plant Protection (obs) ([2]; Table 3b, applied alone, 7.04 ppm): 70.0% | mortality at 2.52 ppm [3, 8]: 6.5% | mortality at 6.88 ppm [3, 8]: 25.4%

CC(C)N1C(=O)N(c2ccccc2)CS/C1=N\C(C)(C)C [Buprofezin, buprofezin, reference compound]
mortality at 0.524 ppm [4, 9]: 83.7% | mortality at 0.984 ppm [4, 9]: 94.6%

CNC(=O)c1cc(Cl)cc(C)c1NC(=O)c1cc(Br)nn1-c1ncccc1Cl [Chlorantraniliprole, chlorantraniliprole, reference compound]
mortality at 0.23 ppm [1, 7]: 21% | mortality at 0.63 ppm [1, 7]: 42.3% | pest or weed control at 2.08 ppm ([2]; Frankliniella occidentalis, 168 h, Table 3e, 2.08 ppm, read-out: Plant Protection (obs)): 63.3% | pest or weed control at 28.7 ppm ([2]; Frankliniella occidentalis, 168 h, Table 3e, 28.7 ppm, read-out: Plant Protection (obs)): 60% | mortality at 0.54 ppm [3, 8]: 0% | mortality at 189.1 ppm [3, 8]: 59.2%

CCOCn1c(-c2ccc(Cl)cc2)c(C#N)c(Br)c1C(F)(F)F [Chlorfenapyr, chlorfenapyr, reference compound]
pest or weed control at 3.7 ppm [5, 10]: 66.7% | pest or weed control at 5 ppm [5, 10]: 53.3%

CCOP(=S)(OCC)Oc1nc(Cl)c(Cl)cc1Cl [Chlorpyrifos, chlorpyrifos, reference compound]
mortality at 0.173 ppm [1, 7]: 17.7% | mortality at 0.624 ppm [1, 7]: 37.9%

N#Cc1nn(-c2c(Cl)cc(C(F)(F)F)cc2Cl)c(N)c1[S+]([O-])C(F)(F)F (centres unmarked) [Fipronil, fipronil, reference compound]
mortality at 0.78 ppm [4, 9]: 65.2% | mortality at 1.197 ppm [4, 9]: 85.5%

N#CCNC(=O)c1cnccc1C(F)(F)F [Flonicamid, flonicamid, reference compound]
% Mortality (obs) ([1]; Table 5k, 0.027 ppm): 24.2% | % Mortality (obs) ([1]; Table 5k, 0.267 ppm): 49.3%

O=C1C=C(N(Cc2ccc(Cl)nc2)CC(F)F)CO1 [Flupyradifurone, 4-[[(6-chloro-3-pyridinyl)methyl](2,2-difluoroethyl)amino]-2(5H)-furanone, reference compound]
mortality at 0.02 ppm [1, 7]: 23.4% | mortality at 0.075 ppm [1, 7]: 48%

O=[N+]([O-])NC1=NCCN1Cc1ccc(Cl)nc1 [Imidacloprid, imidacloprid, reference compound]
mortality at 0.05 ppm [1, 7]: 33.3% | mortality at 0.1 ppm [1, 7]: 6.7% | mortality at 0.09 ppm [4, 11]: 29.2% | mortality at 0.16 ppm [4, 11]: 20% | Plant Protection (obs) ([2]; Table 3c, applied alone, 6.4 ppm): 66.7% | Plant Protection (obs) ([2]; Table 3c, applied alone, 10.9 ppm): 86.7% | mortality at 15.1 ppm [3, 8]: 0% | mortality at 21.15 ppm [3, 8]: 24.7% | mortality at 0.82 ppm [6]: 53.3% | mortality at 2.25 ppm [6]: 40%

COC(=O)N(C(=O)N1CO[C@@]2(C(=O)OC)Cc3cc(Cl)ccc3C2=N1)c1ccc(OC(F)(F)F)cc1 [Indoxacarb, indoxacarb, reference compound]
% Mortality (obs) ([1]; Table 5h, 50 ppm): 23.4% | % Mortality (obs) ([1]; Table 5h, 250 ppm): 37.5% | Plant Protection (obs) ([2]; Table 3g, 50 ppm): 10.0 | Plant Protection (obs) ([2]; Table 3g, 250 ppm): 36.7 | % Mortality (obs) ([3]; Table 2g, 50 ppm): 1.2% | % Mortality (obs) ([3]; Table 2g, 250 ppm): 0% | Plant Protection (obs) ([5]; Table 6e, 0.2 ppm): 70 | Plant Protection (obs) ([5]; Table 6e, 0.5 ppm): 70

CNC(=O)ON=C(C)SC [Methomyl, methomyl, reference compound]
pest or weed control at 8.5 ppm [5, 10]: 43.3%

COc1cccc(C(=O)NN(C(=O)c2cc(C)cc(C)c2)C(C)(C)C)c1C [Methoxyfenozide, methoxyfenozide, reference compound]
pest or weed control at 2.8 ppm [5, 10]: 36.7%

O=C(NC(=O)c1c(F)cccc1F)Nc1ccc(OC(F)(F)C(F)OC(F)(F)F)c(Cl)c1 (centres unmarked) [Novaluron, novaluron, reference compound]
pest or weed control at 0.21 ppm [5, 10]: 33.3% | pest or weed control at 0.36 ppm [5, 10]: 80%

CC1(C)C(C=C(Cl)Cl)C1C(=O)OCc1cccc(Oc2ccccc2)c1 (centres unmarked) [Permethrin, permethrin, reference compound]
mortality at 0.0004 ppm [1, 7]: 15.6% | mortality at 0.04 ppm [1, 7]: 32.1%

CC(COc1ccc(Oc2ccccc2)cc1)Oc1ccccn1 (centres unmarked) [Pyriproxyfen, pyriproxyfen, reference compound]
mortality at 0.053 ppm [3, 8]: 68%

CCc1nn(C)c(C(=O)NCc2ccc(Oc3ccc(C)cc3)cc2)c1Cl [Tolfenpyrad, tolfenpyrad, reference compound]
mortality at 0.192 ppm [1, 7]: 29% | mortality at 0.753 ppm [1, 7]: 61.9%

emamectin benzoate [reference compound]
Plant Protection (obs) ([5]; Table 6f, 0.03 ppm): 43.3 | Plant Protection (obs) ([5]; Table 6f, 0.06 ppm): 23.3

spinetoram [reference compound]
% Mortality (obs) ([1]; Table 5f, 50 ppm): 51.2% | % Mortality (obs) ([1]; Table 5f, 250 ppm): 73.9% | % Mortality (obs) ([4]; 8.46 ppm): 7.5% | % Mortality (obs) ([4]; 20.79 ppm): 14.1% | % Mortality (obs) ([3]; Table 2h, 5 ppm): 0% | % Mortality (obs) ([3]; Table 2h, 29.5 ppm): 64.4%
